Among the test systems are SNB-19 CNS; SN12C renal; HOP-62 NSCLC; SK-OV-3 ovarian; SR leukemia; A549 NSCLC; SK-MEL-28 melanoma; KM12 colon; HCT-15 colon; LOX IMVI melanoma.
Common to all, as to assay: DTP human tumour cell line panel, 48 h

Each structure is given as a SMILES string.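 96-well plates; 48 h exposure; 5 concentrations. Endpoints by linear interpolation between flanking doses. Not reached: highest tested concentration assigned. GI50 = concentration required for 50% inhibition of growth. TGI denotes the concentration required for complete inhibition of growth.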

Consider `O=[N+]([O-])c1cccc(-c2nc(-c3ccc(Cl)cc3Cl)cn2-c2ccccc2)c1`, for which the GI50 in the assay with SNB-19 CNS is 2.55 µM; in the assay with SN12C renal, 1.19 µM; with HOP-62 NSCLC, 1.39 µM; in the assay on SK-OV-3 ovarian, 3.06 µM; in the assay on SR leukemia it was 1.24 µM; with A549 NSCLC, 0.787 µM. The GI50 is 6.76 µM in the assay with SK-MEL-28 melanoma, 0.573 µM with KM12 colon, 1.13 µM with HCT-15 colon and 2.98 µM with LOX IMVI melanoma. Also, the TGI with SNB-19 CNS is over 18.2 µM; in the assay with SN12C renal, over 7.91 µM; in the assay on HOP-62 NSCLC, 7.56 µM; in the assay with SK-OV-3 ovarian, 29.9 µM; in the assay with SR leukemia, over 33.3 µM; with A549 NSCLC it was 1.92 µM. Moreover, the TGI with SK-MEL-28 melanoma was 24.2 µM; in the assay on KM12 colon it was 1.22 µM; in the assay on HCT-15 colon, over 23.2 µM; with LOX IMVI melanoma it was over 30.7 µM.
For the compound `C[P+](C)(C)C`, the TGI with SNB-19 CNS, with SN12C renal, with HOP-62 NSCLC, in the assay with SK-OV-3 ovarian, in the assay with SR leukemia and in the assay with A549 NSCLC was over 100 µM each time. Moreover, the TGI with SK-MEL-28 melanoma, with KM12 colon, in the assay on HCT-15 colon and in the assay with LOX IMVI melanoma was over 100 µM throughout.
For the compound `c1ccc(CN2CCc3[nH]c4ccccc4c3C2)cc1`, the TGI in the assay on SNB-19 CNS is over 95.7 µM; in the assay on SN12C renal, over 78.7 µM; with HOP-62 NSCLC, over 73.5 µM; in the assay with SK-OV-3 ovarian it was 98.4 µM; with SR leukemia it was over 76.6 µM; in the assay on A549 NSCLC, over 79.8 µM. Further, the TGI with SK-MEL-28 melanoma is 32.8 µM; in the assay with KM12 colon, 45.9 µM; with HCT-15 colon it was 62.6 µM; with LOX IMVI melanoma, 40.7 µM.
Regarding `O=C(O)c1cc2ccccc2c2c3c(ccc12)OCO3`, the GI50 was 152 µM with SNB-19 CNS; 174 µM in the assay with SN12C renal; 176 µM with HOP-62 NSCLC; 236 µM in the assay on SK-OV-3 ovarian; 136 µM in the assay on SR leukemia; 197 µM with A549 NSCLC. The GI50 is 167 µM in the assay with SK-MEL-28 melanoma, 219 µM in the assay with KM12 colon, 245 µM in the assay with HCT-15 colon and 223 µM in the assay on LOX IMVI melanoma. Further, the TGI in the assay on SNB-19 CNS is 849 µM; in the assay with SN12C renal, over 1000 µM; with HOP-62 NSCLC, 697 µM; with SK-OV-3 ovarian it was 739 µM; in the assay with SR leukemia, 507 µM; with A549 NSCLC, 621 µM. Moreover, the TGI in the assay on SK-MEL-28 melanoma is 491 µM; in the assay with KM12 colon, 702 µM; in the assay with HCT-15 colon, over 1000 µM; with LOX IMVI melanoma it was 766 µM.
Take `Cc1ccc(C(=O)NCCCOc2ccc(N3C(N)=NC(N)=NC3(C)C)cc2Cl)cc1S(=O)(=O)F`: the GI50 in the assay on SNB-19 CNS is 75 µM; with SN12C renal, 6.54 µM; with HOP-62 NSCLC, over 100 µM; in the assay with SK-OV-3 ovarian it was over 100 µM; in the assay with SR leukemia it was over 100 µM; in the assay with A549 NSCLC it was 39.5 µM. Also, the GI50 is 74.7 µM in the assay on SK-MEL-28 melanoma, 39 µM with KM12 colon, over 100 µM in the assay with HCT-15 colon and 5.05 µM with LOX IMVI melanoma. Also, the TGI with SNB-19 CNS, with SN12C renal, with HOP-62 NSCLC, with SK-OV-3 ovarian, in the assay with SR leukemia and with A549 NSCLC was over 100 µM each time. For the same compound, the TGI in the assay with SK-MEL-28 melanoma, in the assay with KM12 colon, in the assay with HCT-15 colon and in the assay with LOX IMVI melanoma was over 100 µM in each case.
Take `CC(C)c1ccc(C2NC(=S)NC3=C2c2ccccc2C3=O)cc1` (stereo unspecified): the TGI was over 55.2 µM in the assay on SNB-19 CNS; over 61.4 µM in the assay with SN12C renal; over 57.1 µM in the assay on HOP-62 NSCLC; over 61.7 µM in the assay on SK-OV-3 ovarian; 30.6 µM in the assay on SR leukemia; over 62.4 µM in the assay with A549 NSCLC. Moreover, the TGI in the assay on SK-MEL-28 melanoma was 57.9 µM; in the assay on KM12 colon it was over 58.7 µM; in the assay with HCT-15 colon, over 51.9 µM; with LOX IMVI melanoma it was 35.1 µM.
Turning to `CCCCC(C)/C=C/C(=O)C1=C(O)/C(=C/C(=O)O)OC1=O` (stereo unspecified), the TGI in the assay on SNB-19 CNS, in the assay on SN12C renal, in the assay with HOP-62 NSCLC, with SK-OV-3 ovarian, in the assay with SR leukemia and with A549 NSCLC was over 100 µM in each case. The TGI with SK-MEL-28 melanoma, in the assay on KM12 colon, with HCT-15 colon and in the assay on LOX IMVI melanoma was over 100 µM in each case.
Turning to `CCc1cccc(C(C)C)c1NC(=O)CCl`, the TGI in the assay with SNB-19 CNS, in the assay on SN12C renal, in the assay on SK-OV-3 ovarian, in the assay with SR leukemia, in the assay on A549 NSCLC and in the assay with SK-MEL-28 melanoma was over 100 µM throughout. Further, the TGI with KM12 colon, in the assay on HCT-15 colon and in the assay with LOX IMVI melanoma was over 100 µM each time.
As for `NCCCOc1cc2ccccc2cc1C(=O)Nc1ccc(Cl)cc1OC(=O)c1cc2ccccc2cc1OCCCN`, the GI50 is 0.766 µM in the assay with SNB-19 CNS; 0.742 µM in the assay on SN12C renal; 0.208 µM in the assay on HOP-62 NSCLC; 1.57 µM in the assay on SK-OV-3 ovarian; 0.257 µM with SR leukemia; 0.382 µM in the assay with SK-MEL-28 melanoma. Further, the 50% growth inhibitory concentration (GI50) in the assay with KM12 colon is 0.19 µM; in the assay on HCT-15 colon it was 0.468 µM; with LOX IMVI melanoma it was 0.162 µM. The TGI was found to be 2.19 µM with SNB-19 CNS; 2.23 µM in the assay on SN12C renal; 0.515 µM in the assay with HOP-62 NSCLC; 3.19 µM in the assay with SK-OV-3 ovarian; 1.48 µM in the assay with SR leukemia; 0.949 µM with SK-MEL-28 melanoma. For the same compound, the values for the TGI in the assay with KM12 colon, in the assay on HCT-15 colon and in the assay with LOX IMVI melanoma were 0.394 µM, 1.15 µM and 0.316 µM, respectively.
In the case of `Nc1nonc1-c1nc2ccccc2n1Cc1ccc(F)cc1`, the GI50 in the assay with SNB-19 CNS is 14.6 µM; in the assay on HOP-62 NSCLC, 14.6 µM; with SK-OV-3 ovarian, 16.8 µM; in the assay on SR leukemia it was 4.89 µM; in the assay with A549 NSCLC, 5.69 µM; in the assay on SK-MEL-28 melanoma, 7.89 µM. Also, the GI50 in the assay with KM12 colon is 3.71 µM; with HCT-15 colon, 3.6 µM; in the assay with LOX IMVI melanoma, 6.48 µM. Further, the TGI in the assay with SNB-19 CNS, in the assay with HOP-62 NSCLC, in the assay on SK-OV-3 ovarian, in the assay with SR leukemia, in the assay on A549 NSCLC and in the assay with SK-MEL-28 melanoma was over 100 µM throughout. Further, the TGI with KM12 colon, in the assay on HCT-15 colon and in the assay with LOX IMVI melanoma was over 100 µM in each case.
As for `C/C(=N\NC(N)=S)c1ccc(C)c(C)c1`, the TGI in the assay with SN12C renal, in the assay on HOP-62 NSCLC, in the assay on SK-OV-3 ovarian, in the assay with SR leukemia, in the assay with A549 NSCLC and in the assay with SK-MEL-28 melanoma was over 100 µM in each case. In addition, the TGI with KM12 colon, in the assay with HCT-15 colon and in the assay with LOX IMVI melanoma was over 100 µM each time.
`CC1=CC(C)(c2c[nH]c3ccccc23)CC(C)(C)c2c1[nH]c1ccccc21` (stereo unspecified): the TGI in the assay with SNB-19 CNS is 74.7 µM; in the assay with SN12C renal, 28.5 µM; in the assay on HOP-62 NSCLC it was 79.7 µM; in the assay with SK-OV-3 ovarian, 61.8 µM; in the assay with SR leukemia, 32 µM; in the assay on A549 NSCLC, 28.3 µM. Moreover, the TGI was 30.1 µM with SK-MEL-28 melanoma, over 100 µM in the assay with KM12 colon and 31.5 µM in the assay with LOX IMVI melanoma.
As for `[N-]=[N+]=NCCCn1c2c(c3ccc([N+](=O)[O-])cc3c1=O)C(=O)c1cc3c(cc1-2)OCO3`, the TGI in the assay with SNB-19 CNS was over 100 µM; in the assay on SN12C renal, 0.95 µM; in the assay on SK-OV-3 ovarian, over 100 µM; in the assay on SR leukemia, under 0.01 µM; in the assay on A549 NSCLC, 2.87 µM; in the assay with SK-MEL-28 melanoma, over 100 µM. The TGI with KM12 colon is 5.01 µM; in the assay with HCT-15 colon, over 100 µM; in the assay on LOX IMVI melanoma, 1.02 µM. Moreover, the GI50 in the assay on SN12C renal is under 0.0106 µM; in the assay on SK-OV-3 ovarian it was 0.7 µM; in the assay with SR leukemia, under 0.01 µM; with A549 NSCLC, under 0.0388 µM; in the assay on SK-MEL-28 melanoma it was 14.4 µM; with HCT-15 colon it was 1.42 µM. The GI50 with LOX IMVI melanoma was under 0.01 µM.
For the compound `C=C1c2ccccc2C(=O)c2c1c1c(C(=O)OC)c(OC(=O)OCc3ccc([N+](=O)[O-])cc3)ccc1n2Cc1ccccc1`, the GI50 in the assay with SNB-19 CNS is 20.3 µM; in the assay on SN12C renal, 11 µM; in the assay with HOP-62 NSCLC it was 13.3 µM; in the assay on SK-OV-3 ovarian, 23.8 µM; with SR leukemia, 2.59 µM; in the assay with A549 NSCLC, 16.5 µM. In addition, the figures for the GI50 in the assay on KM12 colon, with HCT-15 colon and in the assay with LOX IMVI melanoma were 12.7 µM, 34.3 µM and 35.7 µM, respectively. Moreover, the concentration for total growth inhibition (TGI) with SNB-19 CNS was 80.9 µM; in the assay on SN12C renal it was 42.6 µM; with HOP-62 NSCLC, 29.3 µM; with SK-OV-3 ovarian, 57.6 µM; in the assay with SR leukemia, over 100 µM; with A549 NSCLC, over 100 µM. Also, the figures for the TGI in the assay on KM12 colon, in the assay with HCT-15 colon and in the assay on LOX IMVI melanoma were 61.4 µM, over 100 µM and over 100 µM, respectively.
`Cc1coc2c1C(=O)C(=O)c1ccccc1-2`: the TGI stood at 2.12 µM with SN12C renal; 3 µM in the assay on HOP-62 NSCLC; 3.25 µM with SK-OV-3 ovarian; 4.78 µM in the assay on SR leukemia; 4.07 µM in the assay with A549 NSCLC; 3.09 µM with SK-MEL-28 melanoma. Also, the TGI in the assay with KM12 colon came out at 3.49 µM; in the assay on HCT-15 colon, 3.42 µM; in the assay on LOX IMVI melanoma, 1.05 µM.

A word on the GI50: it is the concentration at which growth is held to half of that of the control. By TGI is commonly meant the concentration at which net growth stops. A lower TGI goes with greater sensitivity of the cells.

The values above are taken from PubChem BioAssay (NCI).
